Experimental data taken from BindingDB's records for doi:10.1124/jpet.105.085829 (Duquesne University, 2005).
“And” between values parts separate entries of the source, which are not always exact repeats. Identical values can stand only once.

Biological target: Sodium-dependent dopamine transporter (Rattus norvegicus, UniProt P23977)
Sequence (P23977 whole entry): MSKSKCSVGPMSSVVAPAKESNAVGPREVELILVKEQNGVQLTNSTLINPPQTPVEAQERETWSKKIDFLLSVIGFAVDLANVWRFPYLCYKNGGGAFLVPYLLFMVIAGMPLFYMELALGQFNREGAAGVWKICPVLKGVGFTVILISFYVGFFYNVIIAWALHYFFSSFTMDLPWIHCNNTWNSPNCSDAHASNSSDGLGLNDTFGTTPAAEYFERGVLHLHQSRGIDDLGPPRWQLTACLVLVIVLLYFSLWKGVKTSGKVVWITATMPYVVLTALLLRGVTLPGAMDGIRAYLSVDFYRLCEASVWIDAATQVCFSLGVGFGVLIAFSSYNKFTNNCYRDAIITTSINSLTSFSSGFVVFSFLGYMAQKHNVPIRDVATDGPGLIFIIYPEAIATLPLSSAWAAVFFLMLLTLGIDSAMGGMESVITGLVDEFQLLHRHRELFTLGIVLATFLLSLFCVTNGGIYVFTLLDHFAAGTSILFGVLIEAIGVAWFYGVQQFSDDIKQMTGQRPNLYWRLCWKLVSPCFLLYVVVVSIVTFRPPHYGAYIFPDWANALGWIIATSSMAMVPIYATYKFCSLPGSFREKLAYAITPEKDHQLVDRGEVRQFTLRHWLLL

SMILES	Ki
CC1CN(CCCn2c3ccccc3c3ccccc32)CC(C)N1 (stereo unspecified) [9-[3-(3,5-dimethylpiperazin-1-yl)propyl]-9H-carbazole]	643 nM and 180 nM
O[C@]1(c2ccc(Cl)cc2)c2ccccc2C2=NCCN21 [Mazanor]	31 nM and 13 nM
COC(=O)[C@@H]1CN(C)CC[C@@H]1c1ccc(Cl)cc1 [4-ARA-127]	1630 nM and 3300 nM
COC(=O)C1C2CCC(C[C@@H]1OC(=O)c1ccccc1)O2 (stereo partly specified) [8-Oxa-norcocaine]	9780 nM and 1560 nM
CN1C2CCC1CC(OC(c1ccccc1)c1ccc(C(F)(F)F)cc1)C2 (stereo unspecified) [8-Methyl-3-[phenyl-(4-trifluoromethyl-phenyl)-methoxy]-8-aza-bicyclo[3.2.1]octane]	1280 nM and 541 nM
O=CN1C2CCC1CC(OC(c1ccc(F)cc1)c1ccc(F)cc1)C2 (stereo unspecified) [N-CHO-4,4'-diFBZT]	> 10000 nM
